Legend:
[1] = system: RYR-dependent calcium release; test: 5HT-induced RYR-dependent cytoplasmic calcium release in NBL cells (Fura2 imaging); type: cell-based, human; settings: for 5HT-induced cytoplasmic calcium release, effect of ryanodine: 50 μM 5HT
Protocol: Pharmacodynamics—Bioassay of Calcium Release: Fifteen mm glass coverslips (cat #72228 Electron Microscopy Sciences, Hatfield, PA) were coated with poly-D-Lysine (Sigma) followed by Laminin and 1×10^5 cells were seeded on each coverslip. Twenty-four hrs later, cells were transfected with AAV2-ITR, AAV2-V5-Car10, or AAV2-V5-CA10 vectors as previously described. In embodiments wherein AAV2 is not employed, other expression vectors (including viral vectors) are used. Fura-2AM (cat #F1221 ThermoFisher scientific, Waltham, MA) was dissolved in DMSO (50 μg in 50 μl) and 1% pluronic acid-127 (cat #P2443 Sigma, St Louis, MO) as the stock solution. Forty eight hrs after seeding, cells were loaded with 2 μM Fura-2AM dye for 45 min at room temperature in the dark in a standard Ca+2 buffer solution containing: 125 mM NaCl, 2 mM MgCl, 4.5 mM KCl, 10 glucose, 20 mM HEPES, 2 mM CaCl2, pH 7.4.25. Following dye loading, coverslips were washed with Ca^+2 buffer solution. For imaging and ATP stimulation experiments, coverslips were placed in a recording chamber (cat #QR-42LP Warner instruments Hamden, CT) on a Leica DMI6000B microscope, and perfused at room temperature (˜22° C.) with Ca^+2 free buffer solution containing: 125 mM NaCl, 4 mM MgCl, 4.5 mM KCl, 10 mM glucose, 20 mM HEPES, pH 7.4. For the ratiometric imaging of Fura-2AM, the excitation light was filtered through an ultra high-speed wavelength switcher to provide wavelengths of 340 and 384 nm and capture by a high-speed digital camera (Leica DFC365FX). Activation of ITPR1 channels was achieved via application of 1 μM ATP (Sigma, St Louis, MO). Data acquisition and processing was made using the LAXS software. Regions of interest over the field of view were selected and the mean pixels intensity at each frame was measured. Data was plotted as ratio fluorescence intensity versus time and subsequently converted to a relative scale.
It was also determined that 5HT-induced RYR-dependent calcium release in NBL cells is inhibited by ryanodine. […]

ITPR1 [2] = molecular target: T1, ITPR1 (Homo sapiens, UniProt Q14643); test: NGF-induced intracellular calcium release in HEK293 cells; type: cell-based; design: endogenous in cells; host or cells: HEK293 (ATCC CRL-1573); settings: data not shown
ITPR1 [3] = molecular target: T1, ITPR1; test: NGF-induced intracellular calcium release / ITPR1 activation in NBL cells; type: cell-based; design: endogenous in cells; settings: NBL cells
[4] = morphine dose vs paw withdrawal latency; type: in vivo, mouse; settings: approximately 30 minutes after intraperitoneal dosing; 10, 30, and 60 mg/kg
Protocol: Behavioral tests: Thermal and mechanical sensitivity was measured by Hargreaves test and von Frey filament threshold calculations respectively. See, e.g., Boyce-Rustay et al. Methods Mol Biol. 2010; 617:41-55; Hargreaves et al., Pain. 1988; 32(1):77-88; and Chaplan et al., J Neurosci Methods. 1994; 53(1):55-63. Tests were performed in a quiet room with daylight-like illumination. Animals were habituated to the behavioral room and apparatus for at least 60 minutes for 1 week before a blinded investigator collected data. The thermal sensitivity test was performed using an IITC Plantar Analgesia Meter apparatus (IITC Life sciences, Woodland Hills, CA) with a plastic box placed on a glass plate of constant temperature (30° C.). The mouse plantar surface was exposed to a beam of radiant heat to induced paw withdrawal. Baseline latencies were adjusted to 5-9 sec with a maximum of 20 sec as cutoff to prevent potential injury. The latency time in seconds from the onset of the intense light beam to paw withdrawal was defined as the withdrawal latency of the paw. […] The mouse hind paw was pressed with one of a series of von Frey filaments with logarithmically incrementing stiffness (Stoelting Co, Wood Dale, IL) presented perpendicular to the plantar surface of each hind paw for 1-2 seconds, the 50% threshold was determined using the Up- and Down method.

[5] = system: ITPR1-mediated cytoplasmic calcium release; test: ATP-induced cytoplasmic calcium release in HEK293 cells (Fura-2 imaging); type: cell-based, human
Protocol: Cell culture and transfections: Human neuronal-derived (e.g., NBL), human non-neuronal derived (e.g., HEK293) cells, or dispersed rodent primary DRG cells can be used. HEK293 cells (cat #CRL-1573 ATCC Manassas, VA) were cultured in Dulbecco's modified Eagle's medium (DMEM-Glutamax cat #0566; Invitrogen) supplemented with 10% fetal bovine serum, FBS (cat #16140 ThermoFisher scientific, Waltham, MA) and 1% penicillin/streptomycin (cat #15140 ThermoFisher scientific, Waltham, MA). Cells were seeded in six-well plates at density of 1.0×10^5 cells per well. […]
Pharmacodynamics—Bioassay of Calcium Release: Fifteen mm glass coverslips (cat #72228 Electron Microscopy Sciences, Hatfield, PA) were coated with poly-D-Lysine (Sigma) followed by Laminin and 1×10^5 cells were seeded on each coverslip. […] Regions of interest over the field of view were selected and the mean pixels intensity at each frame was measured. Data was plotted as ratio fluorescence intensity versus time and subsequently converted to a relative scale.
To further examine whether FLAG-CA8-204 (data not shown), V5-Car10 and V5-CA10 overexpression can inhibit ATP-induced calcium release, HEK293 cells were infected with each if these constructs and real-time intracellular calcium concentrations at baseline and in response to ATP stimulation were measured (FIG. 2). […]

T1 sequence (Q14643 whole entry): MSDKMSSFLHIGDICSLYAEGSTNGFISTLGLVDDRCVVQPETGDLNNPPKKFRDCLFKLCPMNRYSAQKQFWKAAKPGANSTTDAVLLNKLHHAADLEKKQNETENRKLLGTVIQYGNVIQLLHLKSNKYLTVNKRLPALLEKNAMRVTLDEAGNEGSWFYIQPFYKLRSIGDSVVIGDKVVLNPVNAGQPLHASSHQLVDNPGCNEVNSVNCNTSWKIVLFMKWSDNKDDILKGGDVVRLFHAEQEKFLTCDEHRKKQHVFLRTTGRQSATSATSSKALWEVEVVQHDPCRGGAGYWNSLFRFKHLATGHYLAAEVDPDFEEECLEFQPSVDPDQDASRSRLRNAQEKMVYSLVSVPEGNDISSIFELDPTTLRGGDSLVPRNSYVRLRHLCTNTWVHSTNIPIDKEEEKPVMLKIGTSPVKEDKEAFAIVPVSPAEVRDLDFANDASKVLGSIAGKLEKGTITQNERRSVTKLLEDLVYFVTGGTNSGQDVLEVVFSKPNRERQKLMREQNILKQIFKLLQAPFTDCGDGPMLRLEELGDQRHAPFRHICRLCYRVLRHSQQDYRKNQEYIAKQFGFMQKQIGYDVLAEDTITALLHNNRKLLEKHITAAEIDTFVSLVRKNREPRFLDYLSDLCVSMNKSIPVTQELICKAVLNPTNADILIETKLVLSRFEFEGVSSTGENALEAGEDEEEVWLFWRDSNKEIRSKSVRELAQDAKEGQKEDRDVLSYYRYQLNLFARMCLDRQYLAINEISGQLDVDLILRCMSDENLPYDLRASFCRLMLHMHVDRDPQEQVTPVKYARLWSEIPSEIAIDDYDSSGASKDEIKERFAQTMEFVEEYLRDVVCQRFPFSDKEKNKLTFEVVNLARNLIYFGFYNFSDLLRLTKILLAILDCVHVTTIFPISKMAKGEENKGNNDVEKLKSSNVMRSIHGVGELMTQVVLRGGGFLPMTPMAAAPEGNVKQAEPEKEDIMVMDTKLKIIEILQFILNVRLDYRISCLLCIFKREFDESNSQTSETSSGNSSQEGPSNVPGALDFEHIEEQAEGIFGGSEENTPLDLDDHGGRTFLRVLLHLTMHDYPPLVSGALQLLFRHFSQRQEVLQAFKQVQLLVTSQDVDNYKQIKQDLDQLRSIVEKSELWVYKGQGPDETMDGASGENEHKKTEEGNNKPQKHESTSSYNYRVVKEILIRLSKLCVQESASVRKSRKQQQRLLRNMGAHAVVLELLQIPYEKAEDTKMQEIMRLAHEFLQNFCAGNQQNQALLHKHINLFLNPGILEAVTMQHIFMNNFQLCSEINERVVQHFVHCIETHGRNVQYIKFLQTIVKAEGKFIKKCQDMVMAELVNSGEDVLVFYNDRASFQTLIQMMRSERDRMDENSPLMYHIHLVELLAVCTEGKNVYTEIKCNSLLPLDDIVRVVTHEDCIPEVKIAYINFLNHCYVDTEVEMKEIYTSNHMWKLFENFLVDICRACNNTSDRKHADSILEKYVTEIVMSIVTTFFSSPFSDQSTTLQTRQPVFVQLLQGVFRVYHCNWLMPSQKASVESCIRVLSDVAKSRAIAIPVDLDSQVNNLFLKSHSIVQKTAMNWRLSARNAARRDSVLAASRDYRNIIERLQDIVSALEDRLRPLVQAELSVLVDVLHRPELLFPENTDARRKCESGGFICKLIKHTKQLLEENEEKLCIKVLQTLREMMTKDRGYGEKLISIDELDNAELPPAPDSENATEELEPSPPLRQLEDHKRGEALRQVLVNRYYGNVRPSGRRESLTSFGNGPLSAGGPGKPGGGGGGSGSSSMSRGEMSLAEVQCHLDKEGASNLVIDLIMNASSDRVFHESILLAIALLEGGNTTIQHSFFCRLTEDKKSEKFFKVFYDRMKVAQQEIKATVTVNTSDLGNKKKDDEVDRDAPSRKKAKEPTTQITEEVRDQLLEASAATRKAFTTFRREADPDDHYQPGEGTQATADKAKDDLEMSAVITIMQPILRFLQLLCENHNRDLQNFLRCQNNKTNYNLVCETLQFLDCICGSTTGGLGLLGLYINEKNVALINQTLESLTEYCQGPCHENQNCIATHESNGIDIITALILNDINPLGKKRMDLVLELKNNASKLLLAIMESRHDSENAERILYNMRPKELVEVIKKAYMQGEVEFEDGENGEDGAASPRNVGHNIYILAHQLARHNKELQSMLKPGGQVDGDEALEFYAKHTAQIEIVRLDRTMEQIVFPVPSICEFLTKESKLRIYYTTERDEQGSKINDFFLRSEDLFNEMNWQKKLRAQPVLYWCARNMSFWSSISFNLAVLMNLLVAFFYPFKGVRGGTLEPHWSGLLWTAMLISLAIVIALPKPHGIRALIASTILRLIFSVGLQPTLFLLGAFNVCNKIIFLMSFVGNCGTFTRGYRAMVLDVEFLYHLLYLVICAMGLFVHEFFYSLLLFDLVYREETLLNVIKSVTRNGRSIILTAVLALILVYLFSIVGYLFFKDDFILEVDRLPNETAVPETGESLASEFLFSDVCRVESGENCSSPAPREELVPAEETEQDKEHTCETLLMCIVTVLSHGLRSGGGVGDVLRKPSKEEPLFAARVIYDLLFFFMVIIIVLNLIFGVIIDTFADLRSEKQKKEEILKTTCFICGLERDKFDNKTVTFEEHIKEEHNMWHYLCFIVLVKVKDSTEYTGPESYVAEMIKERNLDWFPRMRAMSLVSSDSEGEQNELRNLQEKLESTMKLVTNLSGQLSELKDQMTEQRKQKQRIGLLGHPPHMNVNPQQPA

For `NCCc1c[nH]c2ccc(O)cc12` [5HT, reference compound], which “effect of 5HT on calcium release” value [1] is on record?
The value was “stimulates calcium release”.

Which “effect of NGF on intracellular calcium release” value (ITPR1 [2]) does the source give for “NGF: nerve growth factor, stimulant of calcium release” here?
Its value is “increased intracellular calcium release”.

With `NCCOB(c1ccccc1)c1ccccc1` [2-APB, reference compound] as the molecule, how does the “NGF-induced intracellular calcium release” value (ITPR1 [3]) read?
Its value is “nearly completely inhibited”.

For `CN1CC[C@]23c4c5ccc(O)c4O[C@H]2[C@@H](O)C=C[C@H]3[C@H]1C5` [morphine, reference compound], which paw withdrawal latency [4] is on record?
The paw withdrawal latency was “Elevations were significant when compared with saline”.

For ryanodine [reference compound], which “5HT-induced cytoplasmic calcium release, effect of ryanodine” value ([1]; 10 nM ryanodine) is on record?
The value was “nearly completely inhibited”.

What about the “5HT-induced cytoplasmic calcium release, effect of ryanodine” value ([1]; dose-dependent, vs vehicle) of the same molecule?
Its value is “significantly inhibited”.

For `Nc1ncnc2c1ncn2[C@@H]1O[C@H](COP(=O)(O)OP(=O)(O)OP(=O)(O)O)[C@@H](O)[C@H]1O` [ATP, reference compound], which “effect of ATP on cytosolic free calcium” value [5] is on record?
The value was “stimulated calcium release and an increase in cytosolic free calcium levels in a dose-dependent manner”.

Source: patent US11911450B2, “Method for managing pain” (UNIVERSITY OF MIAMI, priority 2017, dated 2024)
